Measured values reported in patent US12043622B2, “Crystal form of compound for inhibiting the activity of CDK4/6 and use thereof” (Betta Pharmaceuticals Co., Ltd., priority 2019, dated 2024).
Read-outs that look alike come from different tables or passages of the source.

How the values were obtained:
[1] = Dynamic moisture sorption (DVS); format: physicochemical
Excerpt: The instruments and methods of Dynamic moisture adsorption in the present invention was shown in table 7, the results of DVS was shown in table 8.

[2] = Solid form conversion of amorphous and metastable forms; format: physicochemical; settings: for Solid form stability under moisture: water/moisture, room temperature
[3] = Solubility in water at room temperature; format: physicochemical; settings: for Classification of solubility: classes of the Chinese Pharmacopoeia (2015); for solubility: thermodynamic from solid
[4] = Stability of the crystal form, checked by XRD; format: physicochemical
Experimental: In one embodiment of the invention, XRD analysis of the small sample (batch number: 1072P04-A14S01) was performed by SoliPharmausing Bruker D8 Advance Diffractometer.

CDK2/cyclin E = CDK2/cyclin E (Homo sapiens, UniProt P24941); assay: CDK subtype selectivity, 33P-ATP radiometric kinase assay; format: biochemical
Excerpt: (§1) The mechanism of this method is shown in formula (IV).
(§2) Data was processed with Prism4 Software (GraphPad), and the curve fitting formula was: Y=Bottom+(Top−Bottom)/(1+10^((Log IC50−X)*HillSlope)); wherein, Y is percent inhibition (%); X is logarithm of concentration of the inhibitor.

CDK9/cyclin T1 = CDK9/cyclin T1 (Homo sapiens, UniProt P50750); assay: as above; format: biochemical
Sequence of CDK9/cyclin T1 (P50750 whole entry, species assumed): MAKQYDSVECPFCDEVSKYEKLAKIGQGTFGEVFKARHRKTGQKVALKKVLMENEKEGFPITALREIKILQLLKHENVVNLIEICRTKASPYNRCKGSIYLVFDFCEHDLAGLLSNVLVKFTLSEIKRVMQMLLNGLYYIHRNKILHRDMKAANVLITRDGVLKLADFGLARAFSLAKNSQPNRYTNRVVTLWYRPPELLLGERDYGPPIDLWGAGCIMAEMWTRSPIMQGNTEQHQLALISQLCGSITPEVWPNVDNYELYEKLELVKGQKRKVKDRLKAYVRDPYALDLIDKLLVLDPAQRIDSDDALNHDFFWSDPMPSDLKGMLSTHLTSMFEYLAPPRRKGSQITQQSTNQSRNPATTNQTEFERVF
Sequence of CDK9/cyclin T1 (O60563 whole entry partner, species assumed): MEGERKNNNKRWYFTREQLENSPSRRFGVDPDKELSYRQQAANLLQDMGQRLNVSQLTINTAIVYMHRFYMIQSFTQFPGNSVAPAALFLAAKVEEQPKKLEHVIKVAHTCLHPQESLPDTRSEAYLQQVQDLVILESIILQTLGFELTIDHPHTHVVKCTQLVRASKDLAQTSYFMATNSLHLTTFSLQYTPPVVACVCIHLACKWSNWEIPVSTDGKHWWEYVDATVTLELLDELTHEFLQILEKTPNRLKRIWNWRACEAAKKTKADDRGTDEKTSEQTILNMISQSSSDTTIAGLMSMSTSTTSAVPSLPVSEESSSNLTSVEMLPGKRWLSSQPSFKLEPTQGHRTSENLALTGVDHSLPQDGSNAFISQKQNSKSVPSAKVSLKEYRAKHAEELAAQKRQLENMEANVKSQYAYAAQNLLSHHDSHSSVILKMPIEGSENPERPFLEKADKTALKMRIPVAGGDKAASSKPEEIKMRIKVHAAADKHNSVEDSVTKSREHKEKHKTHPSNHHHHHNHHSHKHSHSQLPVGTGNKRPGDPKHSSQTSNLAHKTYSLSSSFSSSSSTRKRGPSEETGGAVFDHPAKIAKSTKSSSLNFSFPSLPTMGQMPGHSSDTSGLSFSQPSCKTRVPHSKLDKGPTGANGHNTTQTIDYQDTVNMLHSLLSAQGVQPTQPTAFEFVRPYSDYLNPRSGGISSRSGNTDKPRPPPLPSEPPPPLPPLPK
Excerpt: as §1, §2

[5] = Pharmacokinetic experiment in SD rats, plasma by LC-MS/MS; format: in vivo; settings: both sexes, Sprague-Dawley (SD), rat, PO, 30 mg/kg
Experimental: A total of 12 SD rats were divided into two groups, 6 in each group, each half of male and female.
In the above plasma sample, protein was precipitated by acetonitrile, the supernatant was diluted 3 times with water, and 5 μL was detected by LC-MS/MS, the results of experiment was shown in table 10: […]

[6] = Crystal form long-term stability, impurities by HPLC; format: physicochemical; settings: for Content > 0.1% Number of unknown impurities (s) / Maximum single impurity content (%) / Total impurity content (%): 25° C.±2° C., RH 60%±10%, HPLC

Structure (SMILES): CCN1CCN(Cc2ccc(Nc3ncc(F)c(-c4cc(F)c5nc6n(c5c4)[C@H](C)CCC6)n3)nc2)CC1.O=C(O)C(O)C(O)C(=O)O [crystal form B of compound II]
- Weight change in the range of 0% RH-80% RH [1]: 5.5%
- Solid form stability on heating ([2]; heated to 180° C.): could be converted to crystal form A

Structure (SMILES): CCN1CCN(Cc2ccc(Nc3ncc(F)c(-c4cc(F)c5nc6n(c5c4)[C@H](C)CCC6)n3)nc2)CC1.CS(=O)(=O)O [crystal form D of compound III]
- Classification of solubility [3]: soluble
- solubility [3]: 50 to 100 mg/mL
- XRD pattern after storage (crystal form stability) ([4]; 25° C., 60% RH, 10 days): changed
- XRD pattern after storage (crystal form stability) ([4]; 40° C., 75% RH, 10 days): changed
- XRD pattern after storage (crystal form stability) ([4]; dried at 80° C., 24 h, listed as crystal form D of the compound III): unchanged

Structure (SMILES): CCN1CCN(Cc2ccc(Nc3ncc(F)c(-c4cc(F)c5nc6n(c5c4)[C@H](C)CCC6)n3)nc2)CC1.CS(=O)(=O)O [crystal form F of compound III]
- Weight change in the range of 0% RH-80% RH [1]: 16.6%
- XRD pattern after storage (crystal form stability) ([4]; 25° C., 60% RH, 10 days): changed
- XRD pattern after storage (crystal form stability) ([4]; 40° C., 75% RH, 10 days): changed
- XRD pattern after storage (crystal form stability) ([4]; dried at 80° C., 24 h, listed as crystal form F the compound III): changed

Structure (SMILES): CCN1CCN(Cc2ccc(Nc3ncc(F)c(-c4cc(F)c5nc6n(c5c4)[C@H](C)CCC6)n3)nc2)CC1.CS(=O)(=O)O [amorphous form of compound III]
- Solid form stability on scale-up ([2]; scaled up to 50 mg): unstable

Structure (SMILES): CCN1CCN(Cc2ccc(Nc3ncc(F)c(-c4cc(F)c5nc6n(c5c4)[C@H](C)CCC6)n3)nc2)CC1 [compound 2b]
- IC50 (CDK2/cyclin E; read-out: IC50 CDK2/cyclin E): 441 nM
- IC50 (CDK9/cyclin T1; read-out: IC50 CDK9/cyclin T1): 649 nM

Structure (SMILES): CCN1CCN(Cc2ccc(Nc3ncc(F)c(-c4cc(F)c5nc6n(c5c4)[C@H](C)CCC6)n3)nc2)CC1.O=C(O)C(O)C(O)C(=O)O [amorphous form of compound II]
- Solid form stability under moisture [2]: readily converted to the crystal form B of compound II
- Solid form stability under moisture ([2]; listed as amorphous form of Compound II): readily forms Form B of Compound II

Structure (SMILES): CCN1CCN(Cc2ccc(Nc3ncc(F)c(-c4cc(F)c5nc6n(c5c4)[C@H](C)CCC6)n3)nc2)CC1.O=C(O)C(O)C(O)C(=O)O [crystal form A of compound II]
- AUC(0-t) [5]: 47000 ng·h/mL
- Classification of solubility [3]: Readily-soluble
- solubility [3]: 100 to 200 mg/mL
- XRD pattern after storage (crystal form stability) ([4]; 25° C., 60% RH, 10 days): not changed
- XRD pattern after storage (crystal form stability) ([4]; 25° C., 60% RH, 10 days, listed as crystal form A of the compound II): unchanged
- XRD pattern after storage (crystal form stability) ([4]; 40° C., 75% RH, 10 days): not changed
- XRD pattern after storage (crystal form stability) ([4]; 40° C., 75% RH, 10 days, listed as crystal form A of the compound II): unchanged
- XRD pattern after storage (crystal form stability) ([4]; dried at 80° C., 24 h): not changed
- XRD pattern after storage (crystal form stability) ([4]; dried at 80° C., 24 h, listed as crystal form A of the compound II): unchanged
- Content > 0.1% Number of unknown impurities (s) ([6]; 0 month): 0
- Maximum single impurity content (%) ([6]; 0 month): 0.05%
- Total impurity content (%) ([6]; 0 month): 0.10%
- Content > 0.1% Number of unknown impurities (s) ([6]; 3 month): 0
- Maximum single impurity content (%) ([6]; 3 month): 0.05%
- Total impurity content (%) ([6]; 3 month): 0.13%
- Content > 0.1% Number of unknown impurities (s) ([6]; 18 month): 0
- Maximum single impurity content (%) ([6]; 18 month): 0.06%
- Total impurity content (%) ([6]; 18 month): 0.21%
- Amount of the impurities produced ([6]; after 18 months): less than 0.1%

Structure (SMILES): CCN1CCN(Cc2ccc(Nc3ncc(F)c(-c4cc(F)c5nc6n(c5c4)[C@H](C)CCC6)n3)nc2)CC1 [compound I, (R)—N-(5-((4-ethylpiperazin-1-yl)methyl)pyridin-2-yl)-5-fluoro-4-(6-fluoro-1-methyl-1,2,3,4-tetrahydrobenzo[4,5]imidazo[1,2-a]pyridin-8-yl)pyrimidin-2-amine]
- IC50 (CDK2/cyclin E; stated jointly for CDK1/2/7/9, read-out: IC50 for inhibiting CDK2): > 400 nM
- IC50 (CDK9/cyclin T1; stated jointly for CDK1/2/7/9, read-out: IC50 for inhibiting CDK9): > 400 nM
- AUC(0-t) [5]: 27700 ng·h/mL
- Classification of solubility [3]: Very little soluble
- solubility [3]: < 1 mg/mL
- Content > 0.1% Number of unknown impurities (s) ([6]; 0 month): 0
- Maximum single impurity content (%) ([6]; 0 month): 0.04%
- Total impurity content (%) ([6]; 0 month): 0.11%
- Content > 0.1% Number of unknown impurities (s) ([6]; 3 month): 0
- Maximum single impurity content (%) ([6]; 3 month): 0.10%
- Total impurity content (%) ([6]; 3 month): 0.17%
- Maximum single impurity content (%) ([6]; 18 month): 0.22%
- Total impurity content (%) ([6]; 18 month): 1.0%
